Values quoted from earlier work as cited in US4904678A, “Sickle cell anemia control” (Norris; Jerome J., priority 1987, dated 1990).

Tested on: erythrocytes
Conditions: about 4 mols of potassium cyanate incorporated per mol of hemoglobin tetramer

N#CO [potassium cyanate]
Erythrocytes prevented from sickling: up to 80%
